Results published in patent US4241184A, “Secondary alcohol dehydrogenase enzyme and use thereof” (priority 1979, dated 1980).

Tests used:
[1] = Propylene- and methane-oxidizing activities in cell fractions P(40), P(80), S(80) of methylotrophs; format: biochemical; conditions: in place of NADH
Description: The oxidation of methane and propylene by particulate [(P)40 and(P)80] fractions and soluble [S(80)] fraction was measured at 30° C. by estimating the production of methanol and propylene oxide, respectively.
Reaction mixtures were contained in 10 ml vials at 4° C. Vials were sealed with rubber caps. The gaseous phase in the vials was removed using vacuum and then was replaced with a gas mixture of methane or propylene and oxygen at a 1:1, v/v ratio. Oxidation of other gaseous n-alkanes and n-alkenes was examined as described above. For liquid substrates, 10 μl of substrate was used directly. Vials were then incubated at 30° C. on a rotary shaker at 200 RPM.
The column temperature was maintained isothermally at 120° C. The carrier gas flow rate was 30 ml/min. of helium.

[2] = test system: cell-free particulate fractions derived from the methylotrophic microorganisms; test: Conversion of C3-C6 n-alkanes to sec. alcohols by cell-free particulate fractions: inhibitors and electron donors; format: biochemical
From the text: The conditions for preparing the cell suspensions or the cell-free particulate fractions from methane-grown methylotroph microorganisms is the same as described above. […] Tables XXV and XXVI show the conversion of C3 -C6 n-alkanes to the corresponding secondary alcohols using cell suspensions and cell-free particulate fractions, respectively, of methane-grown methylotroph microorganisms.

SMILES: NC(=O)C1=CN([C@@H]2O[C@H](COP(=O)(O)OP(=O)(O)OC[C@H]3O[C@@H](n4cnc5c(N)ncnc54)[C@H](OP(=O)(O)O)[C@@H]3O)[C@@H](O)[C@H]2O)C=CC1 [NADPH, reduced nicotinamide adenine dinucleotide phosphate]
- electron carrier for epoxidation of propylene and hydroxylation of methane [1]: could also be utilized
- electron donor in place of NADH for hydroxylation of n-alkanes [2]: could also be utilized
